Results on 11 molecules are retold here after PMC3059195 (Journal of medicinal chemistry, 2010).

The subject of one data set is PPC-1 xenograft tumors. The note with it: for tumor response compared with control group in first week: i.p. three times in first week at 50 mg/kg.
For a further data set, the system named is primary CLL cells. Nature of the data set: Annexin-V apoptosis assay, primary CLL cells. It is filed as cell-based, human. The note with it: one day Annexin-V apoptosis assay.
The conditions of data set [1]: administered orally; cited from earlier work.
Data set [2] can be described thus: In vitro plasma stability. In kind it is in vitro ADME.
The test system of data set [3] is B6-Bcl-2 transgenic mice (B-cells overexpress human Bcl-2). Nature of the data set: B6-Bcl-2 transgenic mouse spleen weight study. The note with it: for tolerability / toxicity of treated mice: 60 μmol/kg i.p., single injection; for tolerability of treated mice: i.p. at 30 μmol/kg; for in vivo activity compared to 6a: dose of 60 μmol/kg (Figure 3A).
Another data set addresses Bcl-XL (Homo sapiens, UniProt Q07817). Nature of the data set: 2D [15N,1H]-HSQC binding to 15N-labeled Bcl-XL. The following applies: ligand/protein ratio of 1:1.
Data set [4] deals with B6-Bcl-2 transgenic mice (B-cells overexpress human Bcl-2). The note with it: ip, 60 umol/kg.
A further data set relates to BP3 cell line. Nature of the data set: Annexin V-FITC and propidium iodide apoptosis assay, BP3.
The target of another data set is GST–Bcl-XL ΔTM protein (Homo sapiens, UniProt Q07817). Nature of the data set: Fluorescence polarization assay. It is filed as binding. (In general: Polarisation of emitted light reports the rotation of a fluorescent probe.)

Like-named read-outs stand apart in the source and are kept apart here. A value given as a limit tells only on which side of the number the result lay.

Chain of Bcl-XL (Q07817 whole entry): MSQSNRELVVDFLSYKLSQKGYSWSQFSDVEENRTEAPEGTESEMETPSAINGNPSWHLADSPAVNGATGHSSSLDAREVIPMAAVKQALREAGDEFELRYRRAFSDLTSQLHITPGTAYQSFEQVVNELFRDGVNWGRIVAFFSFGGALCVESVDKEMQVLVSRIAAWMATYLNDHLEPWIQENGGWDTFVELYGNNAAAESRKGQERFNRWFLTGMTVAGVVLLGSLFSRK
Chain of GST–Bcl-XL ΔTM protein (Q07817 1-211 limits assumed, stated change not applied): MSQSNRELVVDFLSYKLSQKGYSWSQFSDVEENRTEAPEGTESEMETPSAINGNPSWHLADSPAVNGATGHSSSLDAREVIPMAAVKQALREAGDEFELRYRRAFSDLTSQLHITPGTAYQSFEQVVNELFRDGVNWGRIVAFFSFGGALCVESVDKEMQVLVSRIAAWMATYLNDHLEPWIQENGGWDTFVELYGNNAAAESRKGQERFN

For the molecule `CC1=C(C2=C(C)C(=O)c3c(cc(O)c(O)c3C(C)C)C2=O)C(=O)c2cc(O)c(O)c(C(C)C)c2C1=O` [Compound 6a, 6,6′,7,7′-tetrahydroxy-5,5′-diisopropyl-3,3′-dimethyl-2,2′-binaphthyl-1,1′,4,4′-tetraone], the “weight loss in first week” value in the data set on PPC-1 xenograft tumors (50 mg/kg i.p. three times in first week) was ~ 5%. Further, in the data set with PPC-1 xenograft tumors, the “tumor response compared with control group in first week” value was “strong tumor regression”. In addition, in the data set on primary CLL cells, the “LD50 primary CLL sample (first of two, Figure 2D)” value is greater than 30 µM; the “LD50 primary CLL sample (second of two, Supplementary 3B)” value was greater than 30 µM; the “LD50 primary CLL samples (Supplementary Figure 3A)” value is greater than 30 µM. In addition, the “maximum tolerated dose (MTD)” value in data set [1] is “above 240 mg/kg”. The “degraded after 1 h incubation in rat plasma preparations (second statement)” value (from here on “degraded after 1 h incubation”) in data set [2] came to 23%. The “percent of maximum reduction in spleen weight (biological activity)” value in data set [3] (60 μmol/kg ip, maximum spleen shrinkage no more than 50%) is given as 40%.

`CC1=C(C2=C(C)C(=O)c3c(cc(O)c(O)c3Cc3ccccc3)C2=O)C(=O)c2cc(O)c(O)c(Cc3ccccc3)c2C1=O` [Compound 6i, 5,5′-dibenzyl-6,6′,7,7′-tetrahydroxy-3,3′-dimethyl-2,2′-binaphthyl-1,1′,4,4′-tetraone]: the “survival of treated mice in first week” value in the data set on PPC-1 xenograft tumors (mouse, in vivo) was “died”. The “binding to Bcl-XL by 2D [15N,1H]-HSQC, qualitative” value (from here on “binding to Bcl-XL by 2D”) on Bcl-XL is given as “strong binding”. Moreover, the “degraded after 1 h incubation” value in data set [2] turned out to be 5%. Besides, in [3], the “tolerability / toxicity of treated mice” value is reported as “died” and the “tolerability of treated mice” value was “well tolerated”.

For `CC1=C(C2=C(C)C(=O)c3c(cc(O)c(O)c3Cc3ccc(Cl)cc3)C2=O)C(=O)c2cc(O)c(O)c(Cc3ccc(Cl)cc3)c2C1=O` [Compound 6l, 5,5′-bis(4-chlorobenzyl)-6,6′,7,7′-tetrahydroxy-3,3′-dimethyl-2,2′-binaphthyl-1,1′,4,4′-tetraone], in data set [3], the “tolerability / toxicity of treated mice” value is given as “died” and the “tolerability of treated mice” value is reported as “well tolerated”.

In the case of `CC1=C(C2=C(C)C(=O)c3c(cc(O)c(O)c3C(=O)NCC(C)c3ccccc3)C2=O)C(=O)c2cc(O)c(O)c(C(=O)NCC(C)c3ccccc3)c2C1=O` (stereo not shown) [Compound 8a, 6,6′,7,7′-Tetrahydroxy-3,3′-dimethyl-1,1′,4,4′-tetraoxo-N^5,N^5′-bis(2-phenylpropyl)-1,1′,4,4′-tetrahydro-2,2′-binaphthyl-5,5′-dicarboxamide], the “binding to Bcl-XL by 2D” value at Bcl-XL is on record as “strong binding”. The “tolerability / toxicity of treated mice” value in data set [3] is listed as “died”.

With `CC1=C(C2=C(C)C(=O)c3c(cc(O)c(O)c3CCC3CCCCC3)C2=O)C(=O)c2cc(O)c(O)c(CCC3CCCCC3)c2C1=O` [Compound 6d, 5,5′-bis(2-cyclohexylethyl)-6,6′,7,7′-tetrahydroxy-3,3′-dimethyl-2,2′-binaphthyl-1,1′,4,4′-tetraone], in data set [3], the “tolerability / toxicity of treated mice” value is given as “no observed toxicity” and the “in vivo activity compared to 6a” value is reported as “superior”.

Take `CC1=C(C2=C(C)C(=O)c3c(cc(O)c(O)c3CC(C)C)C2=O)C(=O)c2cc(O)c(O)c(CC(C)C)c2C1=O` [Compound 6b, 6,6′,7,7′-tetrahydroxy-5,5′-diisobutyl-3,3′-dimethyl-2,2′-binaphthyl-1,1′,4,4′-tetraone]: in data set [4], the “percent of maximum reduction in spleen weight (biological activity)” value is recorded as 60-80% and the spleen weight reduction is on record as 30-40%. In [3], the “tolerability / toxicity of treated mice” value is “no observed toxicity” and the “in vivo activity compared to 6a” value is given as “superior”.

Regarding `CC1=C(C2=C(C)C(=O)c3c(cc(O)c(O)c3CCc3ccc(C)cc3)C2=O)C(=O)c2cc(O)c(O)c(CCc3ccc(C)cc3)c2C1=O` [Compound 6f, 6,6′,7,7′-tetrahydroxy-3,3′-dimethyl-5,5′-bis(4-methylphenethyl)-2,2′-binaphthyl-1,1′,4,4′-tetraone], the “tumor response compared with control group in first week” value with PPC-1 xenograft tumors is given as “strong tumor regression”. Also, the “binding to Bcl-XL by 2D” value at Bcl-XL is given as “strong binding”. In the data set on primary CLL cells, the “LD50 primary CLL sample (second of two, Supplementary 3B)” value is 15 µM. The “degraded after 1 h incubation” value in [2] is 14%. In [3], the “tolerability / toxicity of treated mice” value is reported as “no observed toxicity” and the “in vivo activity compared to 6a” value was “superior”. For the same molecule, the signs of toxicity result in data set [3] (groups of seven mice, 60 μmol/kg) is “no evident signs of toxicity”.

In the case of `Cc1cc2c(C(C)C)c(O)c(O)c(C=O)c2c(O)c1-c1c(C)cc2c(C(C)C)c(O)c(O)c(C=O)c2c1O` [Compound 1, 1,1′,6,6′,7,7′-Hexahydroxy-5,5′-diisopropyl-3,3′-dimethyl-2,2′-binaphthyl-8,8′-dicarboxaldehyde], in the data set with PPC-1 xenograft tumors (25 mg/kg, i.p.), the “survival of treated mice in first week” value was “died”.

With `CC1=C(C2=C(C)C(=O)c3c(cc(O)c(O)c3CC3CCCC3)C2=O)C(=O)c2cc(O)c(O)c(CC3CCCC3)c2C1=O` [Compound 6c, 5,5′-bis(cyclopentylmethyl)-6,6′,7,7′-tetrahydroxy-3,3′-dimethyl-2,2′-binaphthyl-1,1′,4,4′-tetraone], the “LD50 primary CLL samples (Supplementary Figure 3A)” value in the data set on primary CLL cells was 6.5 µM.

Regarding ABT-737, the “cytotoxic activity against BP3 cell lines” value in the data set with BP3 cell line is reported as “no cytotoxic activity”.

On to `CC1=C(C2=C(C)C(=O)c3c(cc(O)c(O)c3Cc3ccc(-c4ccccc4)cc3)C2=O)C(=O)c2cc(O)c(O)c(Cc3ccc(-c4ccccc4)cc3)c2C1=O` [Compound 6m, 5,5′-bis(biphenyl-4-ylmethyl)-6,6′,7,7′-tetrahydroxy-3,3′-dimethyl-2,2′-binaphthyl-1,1′,4,4′-tetraone], for which the IC50 on GST–Bcl-XL ΔTM protein was in the range of 160 to 630 nM.

A word on the IC50: it is the concentration that gives 50% inhibition.
